Results reported in patent US8431557B2, “Treatment of menopause-associated symptoms” (Besins Healthcare Luxembourg SARL, priority 2006, dated 2013).

How the values were obtained:
menopausal women [1] = experiment: Placebo-controlled study: moderate to severe symptom of vulvar and vaginal atrophy; format: in vivo, human (women)
Description: (§1) This study was a multi-centred, double-blind, placebo-controlled, parallel group comparison. A total of 351 subjects were enrolled at 78 sites in the United States.
(§2) A two-week, medication free, Pre-Treatment Phase was used to determine subject vasomotor symptoms. Efficacy assessments included the number and intensity of hot flushes per day, and severity of vulvar and vaginal atrophy symptoms.
(§3) The three treatment groups comprised the following dosages: • A 0.375 mg dose (1.25 g of gel @ 0.03%) applied to one arm and 0.9 g of placebo gel applied on the other arm once daily for 12 weeks; • A 0.27 mg dose (0.9 g of gel @ 0.03%) applied to one arm and 1.25 g of placebo gel applied on the other arm once daily for 12 weeks; and • 0.9 g of placebo gel applied to one arm and 1.25 g of placebo gel applied on the other arm once daily for 12 weeks.
(§4) The Treatment Phase was 12 weeks. A pre-treatment period of 2 weeks was used to initially evaluate each subject's vasomotor symptoms.
(§5) All data were analyzed using the approach of Observed Cases (OC).
(§6) For all continuous primary and secondary efficacy parameters, descriptive statistics tables and 2-way ANCOVA with fixed factors treatment and centre, and baseline value as covariate were provided. The interaction of treatment and centre was investigated using 2-way ANCOVA with fixed factors treatment, centre, and treatment-by-centre interaction with baseline value as covariate. To control the Type-I error rate, a step-down procedure using contrasts was performed to compare each treatment group to the placebo group. First, the group with the 0.375 mg dose was compared against placebo at the α=0.05 level (2-sided). If the null hypothesis was rejected, the group with the 0.27 mg dose was compared to placebo at the α=0.05 level (2-sided). Graphs were used to characterize the dose response. If the assumptions of the model were not met, then van Elteren's test with centre as the stratification variable was used in the step-down procedure. For categorical data, Fisher's exact test was used to compare treatment groups.
(§7) The study assessed the following variables: • Mean change in frequency of moderate to severe vasomotor symptoms from baseline to Week 4; • Mean change in frequency of moderate to severe vasomotor symptoms from baseline to Week 12; • Mean change in severity of moderate to severe vasomotor symptoms from baseline to Week 4; • Mean change in severity of moderate to severe vasomotor symptoms from baseline to Week 12; • Mean change in frequency of moderate-to-severe hot flushes at each week; • Mean change in severity of moderate-to-severe hot flushes at each week; • Mean change from baseline to Week 12 in the moderate to severe symptom of vulvar and vaginal atrophy that has been identified by the subject as being the most bothersome to her (vaginal pain, dryness, irritation/itching, bleeding, dysuria);
The severity of symptoms of vulvar and vaginal atrophy (vaginal pain associated with sexual activity, dryness, irritation/itching, bleeding associated with sexual activity, or dysuria) that was identified by the subject as moderate to severe and most bothersome was assessed at Week 1, Week 12, or Early Termination using the following rating scale: […]

menopausal women [2] = experiment: Placebo-controlled study: frequency of moderate to severe hot flushes; format: in vivo, human (women); set-up: key to Frequency of Moderate to Severe Hot Flushes, Mean Change from Baseline / Frequency of Moderate to Severe Hot Flushes, Mean: number of moderate-to-severe hot flushes per day; conditions: for Frequency of Moderate to Severe Hot Flushes, Mean: Baseline, daily average
Description: as §1, §2, §3, §4, §5, §6, §7
The baseline value was defined as the daily average of moderate to severe hot flushes during the 2 Pre-Treatment Phase weeks. The “daily average” was calculated from “the mean across the reported days at each week or at Pre-Treatment Phase weeks. If only mild hot flushes were reported on any day, the moderate to severe hot flush value for the subject on that day was zero. If less than 10 days of data were available for the baseline period, the baseline daily average was considered missing.
On a daily basis, the subject recorded the number of hot flushes and rated the intensity of each based on a four-point scale as follows: • 0 (none) • 1 (mild) Sensation of heat without perspiration • 2 (moderate) Sensation of heat with perspiration, but the subject was able to continue with their activity • 3 (severe) Sensation of heat with sweating, sufficiently severe to result in discontinuation of activity Assessment of Vulvar and Vaginal Atrophy Symptom Severity

[3] = 0.27 mg dose (N = 115), Baseline
[4] = 0.27 mg dose (N = 115), Endpoint
[5] = 0.375 mg dose (N = 114), Baseline
[6] = 0.375 mg dose (N = 114), Endpoint

C[C@]12CC[C@@H]3c4ccc(O)cc4CC[C@H]3[C@@H]1CC[C@@H]2O [estradiol, 17-beta estradiol]
Improvement in moderate to severe symptoms of vulvar and vaginal atrophy (menopausal women [1]; 0.27 mg dose): statistically significant improvement | Symptom of Vulvar and Vaginal Atrophy, number of subjects rated Moderate (menopausal women [1]; [3]): 21 | Symptom of Vulvar and Vaginal Atrophy, number of subjects rated Severe (menopausal women [1]; [3]): 16 | Symptom of Vulvar and Vaginal Atrophy, percent of subjects rated Severe (menopausal women [1]; [3]): (13.9%) | Symptom of Vulvar and Vaginal Atrophy, number of subjects rated Mild (menopausal women [1]; [4]): 15 | Symptom of Vulvar and Vaginal Atrophy, number of subjects rated Moderate (menopausal women [1]; [4]): 10 | Symptom of Vulvar and Vaginal Atrophy, number of subjects rated None (menopausal women [1]; [4]): 6 | Symptom of Vulvar and Vaginal Atrophy, number of subjects rated Severe (menopausal women [1]; [4]): 5 | Symptom of Vulvar and Vaginal Atrophy, percent of subjects rated Mild (menopausal women [1]; [4]): (13.0%) | Symptom of Vulvar and Vaginal Atrophy, percent of subjects rated Moderate (menopausal women [1]; [4]): (8.7%) | Symptom of Vulvar and Vaginal Atrophy, percent of subjects rated None (menopausal women [1]; [4]): (5.2%) | Symptom of Vulvar and Vaginal Atrophy, percent of subjects rated Severe (menopausal women [1]; [4]): (4.3%) | Improvement in moderate to severe symptoms of vulvar and vaginal atrophy (menopausal women [1]; 0.375 mg dose): statistically significant improvement | Symptom of Vulvar and Vaginal Atrophy, number of subjects rated Moderate (menopausal women [1]; [5]): 26 | Symptom of Vulvar and Vaginal Atrophy, number of subjects rated Severe (menopausal women [1]; [5]): 18 | Symptom of Vulvar and Vaginal Atrophy, percent of subjects rated Moderate (menopausal women [1]; [5]): (22.8%) | Symptom of Vulvar and Vaginal Atrophy, percent of subjects rated Severe (menopausal women [1]; [5]): (15.8%) | Symptom of Vulvar and Vaginal Atrophy, number of subjects rated Mild (menopausal women [1]; [6]): 17 | Symptom of Vulvar and Vaginal Atrophy, number of subjects rated Moderate (menopausal women [1]; [6]): 9 | Symptom of Vulvar and Vaginal Atrophy, number of subjects rated None (menopausal women [1]; [6]): 10 | Symptom of Vulvar and Vaginal Atrophy, number of subjects rated Severe (menopausal women [1]; [6]): 6 | Symptom of Vulvar and Vaginal Atrophy, percent of subjects rated Mild (menopausal women [1]; [6]): (14.9%) | Symptom of Vulvar and Vaginal Atrophy, percent of subjects rated Moderate (menopausal women [1]; [6]): (7.9%) | Symptom of Vulvar and Vaginal Atrophy, percent of subjects rated None (menopausal women [1]; [6]): (8.8%) | Symptom of Vulvar and Vaginal Atrophy, percent of subjects rated Severe (menopausal women [1]; [6]): (5.3%) | Week at which statistical significance vs placebo was achieved, frequency of moderate to severe hot flushes (menopausal women [2]; 0.27 mg dose): 4 Week | Frequency of Moderate to Severe Hot Flushes, Mean (menopausal women [2]; 0.27 mg dose): 11.73 | Frequency of Moderate to Severe Hot Flushes, Mean Change from Baseline (menopausal women [2]; 0.27 mg dose, Week 1): −1.05 | Frequency of Moderate to Severe Hot Flushes, Mean Change from Baseline (menopausal women [2]; 0.27 mg dose, Week 2): −2.97 | Frequency of Moderate to Severe Hot Flushes, Mean Change from Baseline (menopausal women [2]; 0.27 mg dose, Week 3): −4.08 | Frequency of Moderate to Severe Hot Flushes, Mean Change from Baseline (menopausal women [2]; 0.27 mg dose, Week 4): −4.63 | Frequency of Moderate to Severe Hot Flushes, Mean Change from Baseline (menopausal women [2]; 0.27 mg dose, Week 5): −5.20 | Frequency of Moderate to Severe Hot Flushes, Mean Change from Baseline (menopausal women [2]; 0.27 mg dose, Week 6): −5.62 | Frequency of Moderate to Severe Hot Flushes, Mean Change from Baseline (menopausal women [2]; 0.27 mg dose, Week 7): −6.02 | Frequency of Moderate to Severe Hot Flushes, Mean Change from Baseline (menopausal women [2]; 0.27 mg dose, Week 8): −6.02 | Frequency of Moderate to Severe Hot Flushes, Mean Change from Baseline (menopausal women [2]; 0.27 mg dose, Week 9): −6.24 | Frequency of Moderate to Severe Hot Flushes, Mean Change from Baseline (menopausal women [2]; 0.27 mg dose, Week 10): −6.29 | Frequency of Moderate to Severe Hot Flushes, Mean Change from Baseline (menopausal women [2]; 0.27 mg dose, Week 11): −6.29 | Frequency of Moderate to Severe Hot Flushes, Mean Change from Baseline (menopausal women [2]; 0.27 mg dose, Week 12): −6.19 | Week at which statistical significance vs placebo was achieved, frequency of moderate to severe hot flushes (menopausal women [2]; 0.375 mg dose): 2 Week | Frequency of Moderate to Severe Hot Flushes, Mean (menopausal women [2]; 0.375 mg dose): 12.50 | Frequency of Moderate to Severe Hot Flushes, Mean Change from Baseline (menopausal women [2]; 0.375 mg dose, Week 1): −1.93 | Frequency of Moderate to Severe Hot Flushes, Mean Change from Baseline (menopausal women [2]; 0.375 mg dose, Week 2): −4.36 | Frequency of Moderate to Severe Hot Flushes, Mean Change from Baseline (menopausal women [2]; 0.375 mg dose, Week 3): −5.73 | Frequency of Moderate to Severe Hot Flushes, Mean Change from Baseline (menopausal women [2]; 0.375 mg dose, Week 4): −6.91 | Frequency of Moderate to Severe Hot Flushes, Mean Change from Baseline (menopausal women [2]; 0.375 mg dose, Week 5): −7.56
